Experimental data as given in patent publication US8609731B2, “Substituted tetrahydronaphthalenes, process for the preparation thereof and the use thereof as medicaments” (SANOFI, priority 2007, dated 2013).
Values after ≈ are worked out from the molar mass of the structure shown.

Assays:
hERG channel = target: T1, hERG channel (Homo sapiens, UniProt Q12809); test: hERG channel blockade, whole-cell patch clamp in CHO cells expressing hERG; type: cell-based; details: CHO cells with stable hERG expression, room temperature, read-out: hERG Inh. IC50
T1 construct: expressed in transfected cells; host or cells: CHO cells (ATCC), pcDNA3 vector, G418 selection
From the text: The aim of the test is to determine the concentration range in which the test compound blocks the cardiac hERG channel. Blockade of the hERG channel, which is responsible for the Ikr current in the human heart, is associated with potentially fatal arrhythmias.
For expression of the cDNA encoding the hERG channel it was cloned into the pcDNA3 vector (Invitrogen). Chinese hamster […] (CHO, American Type Culture Collection, Rockville, Md.) were transfected using lipofectamine (GIBCO/BRL, Grand Island, N.Y.) with the hERG cDNA and selected using G418 (GIBCO/BRL, Grand Island, N.Y.; 500 μg/ml). CHO cells with stable expression of the hERG channel were cultured on a HAM F-12 medium which was supplemented with 10% native bovine serum, 1× penicillin/streptomycin and 500 μg/ml G418 in an atmosphere of 95% air/5% carbon dioxide.
The cells selected for the patch clamp experiment are seeded on a plastic support 18-24 hours before the experiment. HERG channel currents are recorded at room temperature by the whole-cell variant of the patch clamp technique using an Axopatch 200B amplifier (Axon Instruments, Foster City, Calif.). The electrodes (3-6 megaohms resistance) are prepared from TW150F glass capillaries (World Precision Instruments, Sarasota, Fla.) and filled with the pipette solution (120 mM potassium aspartate, 20 mM KCl, 4 mM Na2ATP, 5 mM HEPES, 1 mM MgCl2; adjusted to pH 7.2 with KOH). The hERG channel currents are induced by a positive voltage pulse (20 mV) followed by a negative pulse (−40 mV) and are recorded for later analysis. As soon as the hERG channel current of the cell flushed with the control solution ([…], 5 mM KCl, 2.8 mM NaOAc, 1 mM MgCl2, 10 mM HEPES; 10 mM glucose, 1 mM CaCl2; adjusted to pH 7.4 with NaOH) is stable, the cell is perfused with the test compound dissolved in the above control solution (by dilution of a 10 or 100 mM DMSO solution of the test compound so that the DMSO content is no more than 0.1%). The current is followed continuously until no further changes occur. The same procedure is repeated with increasing concentrations of the test compound. The maximum amplitude of the hERG current is measured in picoAmperes (pA) for each concentration and for each cell. The maximum amplitude in pA for each concentration of the test compound is compared with that of the pure control solution in the same cell and calculated as % of the control value.
Evaluation: The test compound is tested at various concentrations in 3-5 CHO cells which express the hERG channel. The IC50 is obtained by use of nonlinear least squares regression (GraphPAD Software, San Diego, Calif.).

physchem = type: physicochemical; details: pH 7.4, aqueous buffer, kinetic from dmso stock
Method: A DMSO solution of the test compound (2.5 mM; 0.5 μl) is pipetted into 200 μl of an aqueous test solution (e.g. phosphate-buffered saline, 10×, 1M, Sigma, adjusted to 10 mM, pH 7.4) in a 96-well microtiter plate, and the turbidity is measured at the resulting theoretical concentration for the test compound of 6.25 μM using a nephelometer (e.g. Nephelostar Galaxy, BMG Labtech). The concentration of the test compound in the aqueous test solution is then raised to a theoretical 12.5 μM by adding further DMSO solution (2.5 mM; 0.5 μl), and the turbidity measurement is repeated. Further additions of DMSO solutions (1 μl, 2.5 mM; 0.5 μl, 10 mM; then 9×1 μl, 10 mM resulting in theoretical concentrations of 25 μM, 50 μM, 100 μM, 150 μM, 200 μM, 250 μM, 300 μM, 350 μM, 400 μM, 450 μM and 500 μM) with turbidity measurement in between complete the measurement process.
Evaluation: The turbidity values from the nephelometer are plotted against the theoretical concentration of the test compound in the aqueous test solution. As soon as a significant turbidity is detected (e.g. 5 times above the control value of the aqueous test solution) at a theoretical concentration, the level of concentration below this is stated to be the solubility limit of the test compound in the test solution. Thus, the maximum possible measurement range emerges as values <6.25 μM, 6.25−500 μM and >500 μM.

human MCH receptor = target: T2, human MCH receptor (Homo sapiens, UniProt Q99705); test: calcium mobilization assay (FLIPR); functional IC50 of MCH1R antagonists; type: cell-based; details: recombinant HEK293 cell line expressing human MCH receptor; calcium flux after addition of agonist MCH
T2 construct: expressed in transfected cells
From the text: Influence on the MCH Receptor In Vitro; Determination of Functional IC50 Values of MCH1R Antagonists
Cloning of the cDNA for the human MCH receptor, preparation of a recombinant HEK293 cell line which expresses the human MCH receptor, and functional measurements with the recombinant cell line took place in analogy to the description by Audinot et al. (J. Biol. Chem. 2001, 276, 13554-13562). A difference from the reference was, however, the use of the plasmid pEAK8 from EDGE Biosystems (USA) for the construction of the expression vector. The host used for the transfection was a transformed HEK cell line named “PEAK Stable Cells” (likewise from EDGE Biosystems). Functional measurements of the cellular calcium flux after addition of agonist (MCH) in the presence of ligand of the invention took place with the aid of the FLIPR apparatus from Molecular Devices (USA), using protocols of the apparatus manufacturer. The compounds of the invention show a significant inhibition (>30%) of the signal induced by the agonist at a concentration of 100 μM, preferably at 10 μM, particularly preferably at 1 μM, very particularly preferably at 100 nM and very very particularly preferably at 10 nM.

T2 sequence (Q99705 whole entry): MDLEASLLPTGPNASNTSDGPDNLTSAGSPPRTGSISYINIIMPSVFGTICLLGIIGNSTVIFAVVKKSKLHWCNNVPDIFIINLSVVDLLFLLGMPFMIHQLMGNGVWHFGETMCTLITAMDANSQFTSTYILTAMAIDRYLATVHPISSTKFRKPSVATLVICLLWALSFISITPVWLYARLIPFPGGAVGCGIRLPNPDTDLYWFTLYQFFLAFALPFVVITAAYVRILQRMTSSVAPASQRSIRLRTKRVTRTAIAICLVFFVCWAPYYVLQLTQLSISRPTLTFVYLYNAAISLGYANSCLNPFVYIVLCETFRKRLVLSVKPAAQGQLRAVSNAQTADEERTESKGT
T1 sequence (Q12809 whole entry): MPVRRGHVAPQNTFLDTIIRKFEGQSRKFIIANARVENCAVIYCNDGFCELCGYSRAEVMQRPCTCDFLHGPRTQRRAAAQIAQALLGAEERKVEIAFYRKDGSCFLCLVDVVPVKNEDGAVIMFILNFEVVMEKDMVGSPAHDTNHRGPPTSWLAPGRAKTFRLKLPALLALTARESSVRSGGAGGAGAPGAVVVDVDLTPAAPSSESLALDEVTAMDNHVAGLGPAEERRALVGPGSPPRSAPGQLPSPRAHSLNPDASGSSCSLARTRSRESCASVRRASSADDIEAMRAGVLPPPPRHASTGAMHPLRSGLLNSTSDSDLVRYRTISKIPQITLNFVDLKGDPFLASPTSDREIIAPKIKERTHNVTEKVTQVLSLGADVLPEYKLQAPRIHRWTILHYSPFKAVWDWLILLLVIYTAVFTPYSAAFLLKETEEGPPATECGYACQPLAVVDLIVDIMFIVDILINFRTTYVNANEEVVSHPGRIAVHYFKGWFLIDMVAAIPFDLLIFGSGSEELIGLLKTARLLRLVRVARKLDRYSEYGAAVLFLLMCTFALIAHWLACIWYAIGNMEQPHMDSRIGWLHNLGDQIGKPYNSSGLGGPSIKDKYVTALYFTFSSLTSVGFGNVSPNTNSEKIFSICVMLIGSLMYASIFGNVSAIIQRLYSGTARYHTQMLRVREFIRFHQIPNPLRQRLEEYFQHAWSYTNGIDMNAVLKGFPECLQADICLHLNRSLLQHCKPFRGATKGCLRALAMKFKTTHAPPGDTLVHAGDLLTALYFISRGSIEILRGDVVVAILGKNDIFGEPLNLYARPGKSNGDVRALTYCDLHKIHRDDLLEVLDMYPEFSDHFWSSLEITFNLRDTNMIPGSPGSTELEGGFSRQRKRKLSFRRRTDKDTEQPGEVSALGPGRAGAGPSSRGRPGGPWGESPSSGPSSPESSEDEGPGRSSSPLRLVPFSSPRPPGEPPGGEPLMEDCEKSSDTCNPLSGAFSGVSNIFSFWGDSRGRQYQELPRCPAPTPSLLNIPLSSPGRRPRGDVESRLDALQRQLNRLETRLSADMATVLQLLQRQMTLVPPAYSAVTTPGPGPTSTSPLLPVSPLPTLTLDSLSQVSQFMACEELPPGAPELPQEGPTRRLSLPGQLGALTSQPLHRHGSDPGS

Compound | IC50 (hERG channel) | solubility kinetic (physchem) | IC50 (human MCH receptor)
O=C(N[C@H]1CCc2cc(CN3CCCC3)ccc2C1)c1ccc(OC[C@@H]2CCCO2)cc1 [Example 1, N-((S)-6-Pyrrolidin-1-ylmethyl-1,2,3,4-tetrahydronaphthalen-2-yl)-4-[(S)-1-(tetrahydrofuran-2-yl)methoxy]benzamide] | > 30000 nM | > 500 µM | 90 nM
CC(C)(C)CNCc1ccc2c(c1)CC[C@H](NC(=O)c1ccc(OC[C@@H]3CCCO3)cc1)C2 [Example 3-34] | > 30000 nM | 50 µM (≈ 22.5 µg/mL) | 100 nM
O=C(N[C@H]1CCc2cc(CN3CC4CCC3C4)ccc2C1)c1ccc(OC[C@@H]2CCCO2)cc1 (some centres unmarked) [Example 3-83] | > 30000 nM | > 500 µM | –
CC1(C)CCN(Cc2ccc3c(c2)CC[C@H](NC(=O)c2ccc(OC[C@@H]4CCCO4)cc2)C3)CC1 [Example 3-166] | > 10000 nM | 450 µM (≈ 214 µg/mL) | 110 nM
COC1CCN(Cc2ccc3c(c2)CC[C@H](N2CCc4cc(OC[C@@H]5CCCO5)ccc4C2=O)C3)CC1 [Example 14, 2-[(S)-6-(4-Methoxypiperidin-1-ylmethyl)-1,2,3,4-tetrahydronaphthalen-2-yl]-6-[(S)-1-(tetrahydrofuran-2-yl)methoxy]-3,4-dihydro-2H-isoquinolin-1-one] | > 10000 nM | > 500 µM | 630 nM
